The values that follow come from PubChem BioAssay (NCI).

Assay in all cases: inhibition of tumour cell growth, NCI panel, 48 h
Test [1] concerns KM12 colon.
Test [2] deals with K-562 leukemia.
In test [3] the test system is CCRF-CEM leukemia.
Test [4] has as its system 786-0 renal.
For test [5], the system named is BT-549 breast.
Test [6] deals with SF-295 CNS.
Test [7] concerns EKVX NSCLC.
For test [8], the system named is PC-3 prostate.
Test [9] deals with SF-539 CNS.

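How tested: cells in 96-well plates exposed to compound for 48 hours at five concentrations. GI50: concentration for 50% inhibition of growth. TGI is the concentration that stops growth completely.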 The source made the active and inactive calls. Cut-off read from the data, not from the text of the source: active = GI50 below about 0.43 µM; inactive = the rest.

In the case of `O=C(N/N=C/c1ccc(Br)cc1)N/N=C/c1ccc(Br)cc1`, the TGI in test [1] was 78.2 µM; in test [2], above 100 µM; in [3], 31 µM; in [4], 13.4 µM; in test [5], 52.9 µM; in test [6], 19.6 µM. Also, the results for the TGI in test [7] and in test [8] were 31.3 µM and above 100 µM, respectively.
Regarding `COc1c(O)c2c(=O)cc(OC)c3c4c(OC)cc(=O)c5c(O)c(OC)c6c(c(c1C(C(C)O)C6C(C)O)c23)c54` (stereo not drawn), the TGI was determined as 3.43 µM in test [1]; 1.66 µM in test [2]; 3.23 µM in test [3]; 4.78 µM in test [4]; 2.11 µM in test [9]; 1.97 µM in test [6]. The TGI in test [7] amounted to 3.56 µM; in test [8], 1.85 µM.
Turning to `O=c1[nH]c(=O)n(C2CC(O)C(CO)O2)cc1OCc1ccccc1` (stereo not drawn), the TGI in test [1], in test [2], in [3], in test [4], in test [5] and in test [7] was above 100 µM in each case. The same compound registered a TGI in test [8] above 100 µM.
On to `COc1ccc(NC(=S)NC(=O)c2ccc3c(c2)Sc2ccccc2O3)c([N+](=O)[O-])c1`, for which the TGI is above 100 µM in test [1]; above 100 µM in test [2]; above 100 µM in test [3]; 56.5 µM in [4]; above 100 µM in [9]; 70.5 µM in test [5]. Besides, the TGI in test [6] and in [8] was above 100 µM each time.
Regarding `c1ccc(N2N=C(c3ccco3)CC2c2ccco2)cc1` (stereo not drawn), the TGI in [1], in [2], in [3], in test [4], in test [9] and in [6] was above 100 µM throughout. This compound also yielded a TGI in test [7] above 100 µM.
Regarding `CN(C)CCC(=O)/C=C\c1ccccc1`, the TGI in test [1] came to 29.2 µM; in [2], 36.8 µM; in test [3], 25 µM; in [4] it was 29.8 µM; in [9] it was 30.7 µM; in [6] it was 45.5 µM. Further, the TGI in test [7] was found to be 33.9 µM.
For `COc1nc(C#CC(C)(C)C)nc(OC)n1`, the TGI in test [1] was 40 µM; in test [2] it was above 100 µM; in [4], above 100 µM; in [9], 83.1 µM; in test [5] it was above 100 µM; in [6], above 100 µM. Besides, the TGI in [7] and in [8] was above 100 µM throughout.
On to `C1=C\SS/C=C\SS/1`, for which the TGI was above 100 µM in test [1]; 85.2 µM in test [2]; 7.09 µM in test [3]; 35.8 µM in test [4]; above 100 µM in [5]; above 100 µM in [6]. Also, the TGI in [7] and in [8] was above 100 µM each time.
For `NS(=O)(=O)c1cccc(NC(=S)NC(=O)Nc2ccc(Cl)c(Cl)c2)c1`, the TGI in test [1] was 31.4 µM; in [2], 37.2 µM; in [3] it was 78.1 µM; in test [4] it was 30.3 µM; in [9], 38.1 µM; in test [5], 32.1 µM. For the same compound, the TGI in [6] is 44.7 µM; in test [8], 41.2 µM.
`C=Cc1ccccc1C1(O)C=CC(OC)(OC)C=C1`: the TGI in [1] is 19.4 µM; in test [2], above 100 µM; in test [3], 8.46 µM; in test [4] it was 16.4 µM; in test [9] it was 6.4 µM; in [6], 32.5 µM. Moreover, the TGI in test [7] came to 50.5 µM; in [8] it was 29.1 µM.
`CN(C)CC1CCC(CN(C)C)C1=O` (stereo not drawn): the TGI was 26.7 µM in test [1]; above 20.3 µM in test [2]; above 100 µM in test [3]; 4.11 µM in [4]; 33.3 µM in test [9]; 32.8 µM in [6]. The values for the TGI in test [7] and in test [8] were 11 µM and 4.58 µM, respectively. For the same compound, the GI50 in test [3] is 0.319 µM.
Take `CC(NC(=O)N(C)C)NC(=O)N(C)C`: the TGI in test [1], in test [2], in [3], in [4], in test [9] and in test [6] was above 10 µM each time. For the same compound, the TGI in test [7] and in [8] was above 10 µM each time.
On to `CCCCCCCCCc1nn2c(Cc3ccccc3)nnc2s1`, for which the TGI is 57.7 µM in [1]; above 100 µM in test [2]; 34.7 µM in [4]; 33.4 µM in [9]; 33.6 µM in test [5]; 45.6 µM in test [6]. Besides, the TGI in test [7] is 29.6 µM; in test [8], 51 µM.
On to `COC(=O)/C(C#N)=C(/NCCN)Nc1ccccc1`, for which the TGI in test [2], in test [4], in [9], in test [5], in [6] and in [7] was above 100 µM each time. Further, the TGI in [8] was above 100 µM.
With `N#Cc1nc(C2CCC2)oc1N`, the TGI in [1] was above 100 µM; in test [2], above 100 µM; in [3], 54.7 µM; in test [4] it was above 100 µM; in test [9] it was above 100 µM; in test [6], above 100 µM. The TGI in test [7] and in test [8] was above 100 µM throughout.
As for `c1c2c(cc(-n3nnc4c3CCCCCC4)c1-n1nnc3c1CCCCCC3)CCCCCC2`, the TGI is 25.8 µM in [1]; 40.6 µM in test [2]; 27.3 µM in [3]; 25.3 µM in test [6]; 23.6 µM in test [7]. Further, the outcome in [4] and in test [9] was inactive.
As for `COc1ccc(-c2cc(-c3ccccc3)[nH]c(=S)c2C#N)cc1`, the TGI is above 100 µM in test [1]; above 100 µM in test [2]; above 100 µM in test [3]; 86.3 µM in test [4]; above 100 µM in test [5]; above 100 µM in test [6]. Also, the TGI in test [7] and in test [8] was above 100 µM in each case.
In the case of `N#Cc1nc(NC(=O)c2ccccc2C(=O)O)c(C#N)[nH]1`, the TGI in test [1], in test [2], in test [3], in [4], in test [9] and in test [6] was above 100 µM in each case. The TGI in test [7] and in test [8] was above 100 µM throughout.
Take `COc1ccc(COCC[C@H](C)OC2OC(CO[Si](C)(C)C(C)(C)C)C(OC(=O)CCCN=[N+]=[N-])C(OC(=O)CCCN=[N+]=[N-])C2OC(=O)CCCN=[N+]=[N-])cc1` (stereo partly drawn): the TGI in test [1] was above 100 µM; in test [3] it was above 100 µM; in [4], above 100 µM; in [9], above 100 µM; in [5], 68.9 µM; in [6], above 100 µM. Besides, the TGI in test [7] and in test [8] was above 100 µM each time.
On to `C=C1C(O)CC[C@]2(C)C1C1OC(C)(C)O[C@]13CC(=O)C(C)=C([C@H]1OC(C)(C)OC12)C3(C)C` (stereo partly drawn), for which the TGI in test [1], in test [2], in test [3], in test [4], in test [9] and in test [5] was above 100 µM each time. Besides, the TGI in [6] and in [7] was above 100 µM in each case.
On to `COc1ccc(C2c3cc4c(cc3OC(N3CCOCC3)C2C)OCO4)c(OC)c1OC` (stereo not drawn), for which the TGI came to 30.8 µM in test [1]; 21 µM in test [2]; 55.4 µM in test [3]; 43.2 µM in test [4]; 27.7 µM in test [9]; 43 µM in test [6]. Moreover, the TGI was above 100 µM in [7] and 88.7 µM in [8].
Regarding `CC(=O)OC1C(COC(=O)c2ccccc2)OC(Nc2ncc(-c3ccc(Br)cc3)s2)C(OC(=O)c2ccccc2)C1OC(=O)c1ccccc1` (stereo not drawn), the TGI in [2], in test [4], in test [5], in test [6], in test [7] and in [8] was above 100 µM in each case.
On to `COC(=O)C1=Nc2c(C)nn(-c3ccccc3)c2N=C(c2ccccc2)C1`, for which the TGI in [1], in test [2], in test [4], in test [9], in test [5] and in test [6] was above 10 µM throughout. The TGI in test [8] is above 10 µM.
On to `COc1cc2c(c(O)c1OC)C(=O)C(Cc1ccc(O)cc1)CO2` (stereo not drawn), for which the TGI was above 100 µM in test [1]; above 100 µM in [2]; above 100 µM in test [3]; above 100 µM in test [4]; 41.7 µM in test [9]; 29.2 µM in test [6]. Further, the TGI in test [8] is above 100 µM.
Turning to `C=C(C)C1C/C=C(/C)CCCC2(CCC3=C(CC(C(=C)C)C/C=C(/C)CCC3)O2)C(=O)C1` (stereo not drawn), the TGI in test [1], in [2], in [3], in [4], in test [9] and in test [6] was above 100 µM each time. For the same compound, the TGI in test [7] is above 100 µM.
Turning to `Cc1cnc2c(c1)C(=O)C1=C(C2=O)C2OC(=O)CC2OC1(C)C` (stereo not drawn), the TGI in test [1] came out at 1.73 µM; in test [3], 0.151 µM; in [4], 0.9 µM; in test [9], 0.575 µM; in test [5], 0.363 µM; in test [6], 2.68 µM. Also, the figures for the TGI in test [7] and in test [8] were 0.826 µM and 0.812 µM, respectively.
Turning to `Oc1[nH]c2ccccc2c1N=NC(=S)Nc1ccc(Cl)cc1`, the TGI in [1] was above 100 µM; in test [2], above 100 µM; in [3], above 100 µM; in [4] it was above 100 µM; in [9] it was 82.3 µM; in test [6], above 100 µM. Further, the TGI in test [7] and in test [8] was above 100 µM throughout.
For the compound `CCCCn1c(-c2ccc([N+](=O)[O-])cc2)cs/c1=N/N=C1\C(=O)Nc2ccc(Br)cc21`, the TGI in test [1] was 38.2 µM; in [2], 73.1 µM; in test [3], above 100 µM; in [4] it was 29.8 µM; in test [9], 28 µM; in test [5], 51.6 µM. In addition, the figures for the TGI in test [6] and in test [7] were 61.2 µM and 79.3 µM, respectively.
For `CCOC(=O)C(NC(=O)c1nc[nH]c1[N+](=O)[O-])C(C)C` (stereo not drawn), the TGI in test [1], in [2], in [3], in test [4], in test [9] and in test [6] was above 100 µM throughout. Further, the TGI in [7] is above 100 µM.
Regarding `CCON1CC(C(=O)OC)=C(O)C1=O`, the TGI in test [1], in test [2], in test [4], in test [5], in test [6] and in test [7] was above 100 µM each time. The compound also registered a TGI in test [8] above 100 µM.
For `OCc1ccc2c(c1)CC1(Cc3ccc(/C=N/O)cc3C1)C2` (stereo not drawn), the TGI in [1] was 19.1 µM; in test [3] it was above 100 µM; in test [4], above 100 µM; in test [9] it was 11.3 µM; in test [5], above 66.4 µM; in test [6] it was above 40.8 µM. Moreover, the TGI in [7] and in [8] was above 100 µM each time.
As for `O=C(c1ccncc1)C1C(=O)c2ccccc2C1C1(O)c2ccccc2CC1C(O)c1ccncc1` (stereo not drawn), the TGI in test [1], in [2], in [4], in test [9], in [5] and in [6] was above 100 µM throughout. In test [7], this compound yielded a TGI above 100 µM.
For the compound `O=c1cc(/C=C/c2ccccc2)[nH]c2cc3c(cc12)OCO3`, the TGI is 17.7 µM in test [1]; 12.7 µM in test [4]; 4.69 µM in test [9]; 22 µM in [5]; 13.7 µM in test [6]; 25 µM in [7]. In addition, in [6], the GI50 was 3 µM.
Regarding `CC(=O)OC1CCC2C3CCc4c(C)ccc(OS(=O)(=O)c5ccccc5)c4C3CCC12C` (stereo not drawn), the TGI in [2] was above 100 µM; in test [3], above 100 µM; in test [4] it was 36.9 µM; in test [5], above 100 µM; in test [6], above 100 µM; in test [7] it was above 100 µM. For the same compound, the TGI in test [8] is above 100 µM.
